# Reference: ChEMBL document CHEMBL1154011, “Discovery and structural analysis of Eph receptor tyrosine kinase inhibitors” (Bioorg Med Chem Lett, 2009)
# Active and inactive are the calls of the source. The calls are words filed in the database; no cut-off is given here.
# Columns and labels:
# [1] = molecular target: Bcr/Abl fusion protein (Homo sapiens) (UniProt P00519+P11274); assay: Inhibition of Bcr-Abl expressed in mouse BA/F3 cells; assay type: cell-based; details: BaF3
# [2] = molecular target: Tyrosine-protein kinase ABL1 (Homo sapiens) (UniProt P00519); assay: Inhibition of Abl expressed in mouse BA/F3 cells; assay type: cell-based; details: BaF3
# BaF3 = assay: Inhibition of PDGFR expressed in mouse BA/F3 cells; assay type: cell-based
# [3] = molecular target: Mast/stem cell growth factor receptor Kit (Homo sapiens) (UniProt P10721); assay: Inhibition of c-kit expressed in mouse BA/F3 cells; assay type: cell-based; details: BaF3
# [4] = molecular target: Serine/threonine-protein kinase B-raf (Homo sapiens) (UniProt P15056); assay: Inhibition of b-Raf at 100 uM
# [5] = molecular target: Macrophage colony-stimulating factor 1 receptor (Homo sapiens) (UniProt P07333); assay: Inhibition of CSF1R at 10 uM
# [6] = molecular target: Epithelial discoidin domain-containing receptor 1 (Homo sapiens) (UniProt Q08345); assay: Inhibition of DDR1 at 10 uM
# [7] = molecular target: Discoidin domain-containing receptor 2 (Homo sapiens) (UniProt Q16832); assay: Inhibition of DDR2 at 10 uM
# [8] = molecular target: Ephrin type-A receptor 2 (Homo sapiens) (UniProt P29317); assay: Inhibition of EphA2 at 10 uM
# [9] = molecular target: Ephrin type-A receptor 5 (Homo sapiens) (UniProt P54756); assay: Inhibition of EphA5 at 10 uM
# [10] = molecular target: Ephrin type-A receptor 8 (Homo sapiens) (UniProt P29322); assay: Inhibition of EphA8 at 10 uM
# [11] = molecular target: T1, Ephrin type-B receptor 1 (Homo sapiens) (UniProt P54762); assay: Inhibition of EphB1 at 10 uM
# T1 sequence (whole entry): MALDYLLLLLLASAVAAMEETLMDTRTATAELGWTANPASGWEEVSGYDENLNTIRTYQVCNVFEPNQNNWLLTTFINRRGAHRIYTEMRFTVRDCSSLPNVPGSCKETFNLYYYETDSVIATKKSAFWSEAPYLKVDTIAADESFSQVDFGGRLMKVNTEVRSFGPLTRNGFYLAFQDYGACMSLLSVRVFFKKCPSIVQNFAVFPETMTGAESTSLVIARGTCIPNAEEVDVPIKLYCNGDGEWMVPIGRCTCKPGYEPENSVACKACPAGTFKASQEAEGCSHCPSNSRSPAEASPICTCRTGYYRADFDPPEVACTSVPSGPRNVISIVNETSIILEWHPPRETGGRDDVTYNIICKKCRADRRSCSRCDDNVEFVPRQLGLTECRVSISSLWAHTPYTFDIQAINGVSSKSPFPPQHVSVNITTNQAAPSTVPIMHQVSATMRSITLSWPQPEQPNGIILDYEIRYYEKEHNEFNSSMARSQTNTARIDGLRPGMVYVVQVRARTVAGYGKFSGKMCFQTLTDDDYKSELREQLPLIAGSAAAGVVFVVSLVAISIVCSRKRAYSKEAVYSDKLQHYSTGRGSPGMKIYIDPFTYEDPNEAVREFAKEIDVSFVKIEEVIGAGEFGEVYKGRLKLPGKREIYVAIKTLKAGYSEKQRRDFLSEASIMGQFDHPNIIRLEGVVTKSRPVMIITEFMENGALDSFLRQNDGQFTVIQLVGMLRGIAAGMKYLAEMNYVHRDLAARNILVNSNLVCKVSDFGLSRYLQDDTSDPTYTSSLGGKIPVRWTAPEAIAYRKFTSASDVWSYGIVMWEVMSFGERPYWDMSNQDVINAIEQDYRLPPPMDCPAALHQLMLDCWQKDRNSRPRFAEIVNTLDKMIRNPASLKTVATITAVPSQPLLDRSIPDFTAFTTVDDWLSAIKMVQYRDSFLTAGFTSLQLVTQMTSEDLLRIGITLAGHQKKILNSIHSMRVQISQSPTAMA
# [12] = molecular target: Ephrin type-B receptor 2 (Homo sapiens) (UniProt P29323); assay: Inhibition of EphB2 at 10 uM
# [13] = molecular target: Ephrin type-B receptor 3 (Homo sapiens) (UniProt P54753); assay: Inhibition of EphB3 at 10 uM
# [14] = molecular target: Tyrosine-protein kinase FRK (Homo sapiens) (UniProt P42685); assay: Inhibition of Frk at 10 uM
# [15] = molecular target: Mast/stem cell growth factor receptor Kit (Homo sapiens) (UniProt P10721); assay: Inhibition of Kit at 10 uM
# [16] = molecular target: Tyrosine-protein kinase Lck (Homo sapiens) (UniProt P06239); assay: Inhibition of Lck at 10 uM
# [17] = molecular target: Mitogen-activated protein kinase 14 (Homo sapiens) (UniProt Q16539); assay: Inhibition of p38alpha at 10 uM
# [18] = molecular target: Mitogen-activated protein kinase 11 (Homo sapiens) (UniProt Q15759); assay: Inhibition of p38beta at 10 uM
# [19] = molecular target: Platelet-derived growth factor receptor alpha (Homo sapiens) (UniProt P16234); assay: Inhibition of PDGFRalpha at 10 uM
# [20] = molecular target: Platelet-derived growth factor receptor beta (Homo sapiens) (UniProt P09619); assay: Inhibition of PDGFRbeta at 10 uM
# [21] = molecular target: RAF proto-oncogene serine/threonine-protein kinase (Homo sapiens) (UniProt P04049); assay: Inhibition of RAF1 at 10 uM
# [22] = molecular target: Serine/threonine-protein kinase B-raf (Homo sapiens) (UniProt P15056); assay: Inhibition of Tel fused b-Raf expressed in mouse BA/F3 cells; assay type: cell-based; details: BaF3
# [23] = molecular target: T2, Ephrin type-A receptor 6 (Homo sapiens) (UniProt Q9UF33); assay: Inhibition of EphA6 at 10 uM
# T2 sequence (whole entry): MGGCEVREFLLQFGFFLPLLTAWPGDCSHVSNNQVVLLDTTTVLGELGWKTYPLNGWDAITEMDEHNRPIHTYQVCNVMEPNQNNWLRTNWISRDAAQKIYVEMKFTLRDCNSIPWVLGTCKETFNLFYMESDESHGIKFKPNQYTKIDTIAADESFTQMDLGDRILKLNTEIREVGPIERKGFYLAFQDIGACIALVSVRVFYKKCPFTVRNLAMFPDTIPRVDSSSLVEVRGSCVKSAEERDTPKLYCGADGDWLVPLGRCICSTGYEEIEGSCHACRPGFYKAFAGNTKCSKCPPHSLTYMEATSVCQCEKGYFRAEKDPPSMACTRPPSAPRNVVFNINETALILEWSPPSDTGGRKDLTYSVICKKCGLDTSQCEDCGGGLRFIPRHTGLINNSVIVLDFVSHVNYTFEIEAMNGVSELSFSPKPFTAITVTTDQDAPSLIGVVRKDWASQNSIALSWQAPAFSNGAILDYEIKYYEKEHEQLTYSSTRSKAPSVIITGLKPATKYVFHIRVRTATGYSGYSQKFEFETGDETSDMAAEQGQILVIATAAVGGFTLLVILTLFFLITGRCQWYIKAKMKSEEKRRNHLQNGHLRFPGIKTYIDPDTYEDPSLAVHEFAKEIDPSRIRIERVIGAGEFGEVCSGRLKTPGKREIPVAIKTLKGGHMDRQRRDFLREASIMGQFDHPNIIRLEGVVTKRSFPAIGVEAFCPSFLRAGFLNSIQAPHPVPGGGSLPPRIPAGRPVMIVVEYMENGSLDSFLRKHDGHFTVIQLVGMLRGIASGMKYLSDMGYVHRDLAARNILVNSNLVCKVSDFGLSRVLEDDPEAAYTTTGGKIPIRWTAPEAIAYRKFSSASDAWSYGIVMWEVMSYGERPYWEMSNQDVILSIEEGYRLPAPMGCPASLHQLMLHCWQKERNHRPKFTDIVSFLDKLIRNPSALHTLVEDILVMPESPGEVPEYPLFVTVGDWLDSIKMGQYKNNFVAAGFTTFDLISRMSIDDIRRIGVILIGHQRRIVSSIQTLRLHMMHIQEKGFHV
# [24] = molecular target: Ephrin type-A receptor 7 (Homo sapiens) (UniProt Q15375); assay: Inhibition of EphA7 at 10 uM
# [25] = molecular target: Fibroblast growth factor receptor 2 (Homo sapiens) (UniProt P21802); assay: Inhibition of FGFR2 expressed in mouse BA/F3 cells; assay type: cell-based; details: BaF3
# [26] = molecular target: Fibroblast growth factor receptor 3 (Homo sapiens) (UniProt P22607); assay: Inhibition of FGFR3 expressed in mouse BA/F3 cells; assay type: cell-based; details: BaF3
# [27] = molecular target: Fibroblast growth factor receptor 4 (Homo sapiens) (UniProt P22455); assay: Inhibition of FGFR4 expressed in mouse BA/F3 cells; assay type: cell-based; details: BaF3
# Sequence of Mast/stem cell growth factor receptor Kit (Homo sapiens) (P10721 whole entry): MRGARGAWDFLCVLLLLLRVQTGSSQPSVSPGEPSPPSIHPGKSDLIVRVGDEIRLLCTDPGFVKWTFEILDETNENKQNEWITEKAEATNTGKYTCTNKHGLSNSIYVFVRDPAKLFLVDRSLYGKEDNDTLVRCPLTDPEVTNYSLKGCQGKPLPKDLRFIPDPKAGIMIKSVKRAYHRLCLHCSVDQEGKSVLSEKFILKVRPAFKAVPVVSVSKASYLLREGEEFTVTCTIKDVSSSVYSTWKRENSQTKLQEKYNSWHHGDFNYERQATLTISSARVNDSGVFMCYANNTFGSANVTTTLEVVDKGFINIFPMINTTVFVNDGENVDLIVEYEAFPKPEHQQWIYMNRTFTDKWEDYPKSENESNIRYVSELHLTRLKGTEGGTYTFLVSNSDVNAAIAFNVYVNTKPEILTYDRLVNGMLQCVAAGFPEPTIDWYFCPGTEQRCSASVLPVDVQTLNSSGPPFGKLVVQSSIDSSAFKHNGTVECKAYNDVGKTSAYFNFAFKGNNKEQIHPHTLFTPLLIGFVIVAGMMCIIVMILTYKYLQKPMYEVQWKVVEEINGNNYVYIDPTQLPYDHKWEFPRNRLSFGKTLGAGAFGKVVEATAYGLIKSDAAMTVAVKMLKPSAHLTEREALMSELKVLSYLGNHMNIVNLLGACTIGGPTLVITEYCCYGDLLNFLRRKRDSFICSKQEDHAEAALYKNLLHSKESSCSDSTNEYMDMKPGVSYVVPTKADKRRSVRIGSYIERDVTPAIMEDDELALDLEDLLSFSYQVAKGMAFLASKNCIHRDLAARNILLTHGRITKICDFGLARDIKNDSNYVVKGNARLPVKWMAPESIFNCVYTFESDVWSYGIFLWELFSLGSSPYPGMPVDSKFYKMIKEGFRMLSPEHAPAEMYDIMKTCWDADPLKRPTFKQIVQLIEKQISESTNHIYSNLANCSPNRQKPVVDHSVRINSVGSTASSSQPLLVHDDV
# Sequence of Ephrin type-A receptor 7 (Homo sapiens) (Q15375 28-998 limits assumed): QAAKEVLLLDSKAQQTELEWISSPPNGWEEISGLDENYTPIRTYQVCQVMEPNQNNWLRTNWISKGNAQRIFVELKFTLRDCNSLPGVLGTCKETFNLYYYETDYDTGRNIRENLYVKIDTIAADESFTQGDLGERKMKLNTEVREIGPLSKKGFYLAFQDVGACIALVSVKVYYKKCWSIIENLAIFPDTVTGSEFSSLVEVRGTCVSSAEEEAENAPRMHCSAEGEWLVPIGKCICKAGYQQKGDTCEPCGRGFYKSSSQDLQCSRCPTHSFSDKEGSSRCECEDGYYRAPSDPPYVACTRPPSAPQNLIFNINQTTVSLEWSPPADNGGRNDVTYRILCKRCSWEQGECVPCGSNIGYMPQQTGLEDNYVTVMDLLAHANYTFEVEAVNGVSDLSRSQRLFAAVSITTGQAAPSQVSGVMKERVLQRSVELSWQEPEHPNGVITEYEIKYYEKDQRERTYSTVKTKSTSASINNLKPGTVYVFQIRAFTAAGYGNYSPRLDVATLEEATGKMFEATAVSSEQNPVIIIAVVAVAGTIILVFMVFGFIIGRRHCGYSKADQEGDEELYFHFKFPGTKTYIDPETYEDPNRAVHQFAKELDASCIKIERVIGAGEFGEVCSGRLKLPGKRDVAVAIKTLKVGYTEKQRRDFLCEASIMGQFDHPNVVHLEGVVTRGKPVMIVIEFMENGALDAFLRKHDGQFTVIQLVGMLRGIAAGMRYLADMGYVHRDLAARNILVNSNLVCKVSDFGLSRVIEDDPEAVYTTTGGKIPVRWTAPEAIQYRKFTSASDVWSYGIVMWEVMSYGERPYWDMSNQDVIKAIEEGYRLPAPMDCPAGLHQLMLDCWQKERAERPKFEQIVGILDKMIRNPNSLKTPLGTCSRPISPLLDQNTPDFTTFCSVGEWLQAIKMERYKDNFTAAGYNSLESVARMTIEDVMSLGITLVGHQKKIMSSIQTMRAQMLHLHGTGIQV
# Sequence of Serine/threonine-protein kinase B-raf (Homo sapiens) (P15056 whole entry, the tested form may be a part): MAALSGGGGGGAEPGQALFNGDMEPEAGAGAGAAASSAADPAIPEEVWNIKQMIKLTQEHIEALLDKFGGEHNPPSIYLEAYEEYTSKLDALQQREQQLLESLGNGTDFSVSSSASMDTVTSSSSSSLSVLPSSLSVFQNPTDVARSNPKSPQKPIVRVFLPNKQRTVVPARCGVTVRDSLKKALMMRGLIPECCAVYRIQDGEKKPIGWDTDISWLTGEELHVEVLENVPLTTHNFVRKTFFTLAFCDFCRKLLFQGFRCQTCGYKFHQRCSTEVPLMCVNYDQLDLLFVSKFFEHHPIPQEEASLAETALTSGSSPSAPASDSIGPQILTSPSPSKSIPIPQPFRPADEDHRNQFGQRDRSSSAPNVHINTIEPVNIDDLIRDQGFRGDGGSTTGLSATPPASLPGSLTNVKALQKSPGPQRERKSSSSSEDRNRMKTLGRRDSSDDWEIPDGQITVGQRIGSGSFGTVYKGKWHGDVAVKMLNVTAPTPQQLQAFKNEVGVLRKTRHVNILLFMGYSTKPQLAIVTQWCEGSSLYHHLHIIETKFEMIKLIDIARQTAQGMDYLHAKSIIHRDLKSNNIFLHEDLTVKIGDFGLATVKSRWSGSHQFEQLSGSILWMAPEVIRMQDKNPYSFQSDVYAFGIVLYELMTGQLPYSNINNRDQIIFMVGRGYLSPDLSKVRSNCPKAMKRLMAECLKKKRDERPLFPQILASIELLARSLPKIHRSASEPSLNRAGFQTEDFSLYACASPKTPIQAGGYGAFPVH
# Sequence of Tyrosine-protein kinase ABL1 (Homo sapiens) (P00519 whole entry): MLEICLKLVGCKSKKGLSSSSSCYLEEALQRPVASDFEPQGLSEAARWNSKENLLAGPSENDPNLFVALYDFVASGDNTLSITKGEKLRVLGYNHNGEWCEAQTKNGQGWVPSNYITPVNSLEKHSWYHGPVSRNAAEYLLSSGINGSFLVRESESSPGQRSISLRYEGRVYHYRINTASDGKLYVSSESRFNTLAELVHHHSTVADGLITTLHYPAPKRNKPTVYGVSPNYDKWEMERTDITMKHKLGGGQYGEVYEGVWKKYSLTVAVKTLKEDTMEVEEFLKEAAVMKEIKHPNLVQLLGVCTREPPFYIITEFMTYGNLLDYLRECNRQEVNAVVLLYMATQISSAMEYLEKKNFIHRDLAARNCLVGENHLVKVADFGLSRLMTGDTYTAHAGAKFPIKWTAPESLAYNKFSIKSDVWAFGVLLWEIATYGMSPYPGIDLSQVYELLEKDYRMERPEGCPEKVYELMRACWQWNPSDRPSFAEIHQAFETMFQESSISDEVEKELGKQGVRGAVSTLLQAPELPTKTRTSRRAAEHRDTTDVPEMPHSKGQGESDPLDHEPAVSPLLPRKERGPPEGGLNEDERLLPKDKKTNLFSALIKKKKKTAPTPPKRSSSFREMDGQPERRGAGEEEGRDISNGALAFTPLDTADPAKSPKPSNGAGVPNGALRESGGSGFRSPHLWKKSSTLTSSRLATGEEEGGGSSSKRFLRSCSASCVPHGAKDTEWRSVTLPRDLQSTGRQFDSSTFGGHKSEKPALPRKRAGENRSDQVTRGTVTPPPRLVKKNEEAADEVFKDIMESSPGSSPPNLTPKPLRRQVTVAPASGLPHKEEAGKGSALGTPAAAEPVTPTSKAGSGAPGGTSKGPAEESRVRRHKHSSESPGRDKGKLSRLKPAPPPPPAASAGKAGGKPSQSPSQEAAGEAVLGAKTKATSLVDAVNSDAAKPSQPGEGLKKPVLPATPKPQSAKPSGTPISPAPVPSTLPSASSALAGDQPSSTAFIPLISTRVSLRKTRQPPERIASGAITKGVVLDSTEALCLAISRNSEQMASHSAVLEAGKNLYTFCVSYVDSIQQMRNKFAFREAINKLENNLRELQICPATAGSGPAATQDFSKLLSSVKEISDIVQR
# Sequence of Tyrosine-protein kinase Lck (Homo sapiens) (P06239 2-509 limits assumed): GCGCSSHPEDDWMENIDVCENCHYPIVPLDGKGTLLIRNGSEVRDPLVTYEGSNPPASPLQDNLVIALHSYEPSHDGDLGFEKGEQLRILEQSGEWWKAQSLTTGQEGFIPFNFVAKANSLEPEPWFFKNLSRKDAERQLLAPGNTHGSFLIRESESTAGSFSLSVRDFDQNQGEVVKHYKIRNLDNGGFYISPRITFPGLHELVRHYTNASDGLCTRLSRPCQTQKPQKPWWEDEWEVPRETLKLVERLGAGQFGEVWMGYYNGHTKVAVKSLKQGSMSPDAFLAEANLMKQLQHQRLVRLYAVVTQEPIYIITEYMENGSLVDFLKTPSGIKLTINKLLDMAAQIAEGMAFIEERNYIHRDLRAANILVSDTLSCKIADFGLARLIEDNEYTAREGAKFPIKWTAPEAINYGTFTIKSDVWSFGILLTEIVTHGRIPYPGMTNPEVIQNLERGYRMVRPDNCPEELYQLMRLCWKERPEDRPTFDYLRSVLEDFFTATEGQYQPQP
# Sequence of Mitogen-activated protein kinase 11 (Homo sapiens) (Q15759 whole entry): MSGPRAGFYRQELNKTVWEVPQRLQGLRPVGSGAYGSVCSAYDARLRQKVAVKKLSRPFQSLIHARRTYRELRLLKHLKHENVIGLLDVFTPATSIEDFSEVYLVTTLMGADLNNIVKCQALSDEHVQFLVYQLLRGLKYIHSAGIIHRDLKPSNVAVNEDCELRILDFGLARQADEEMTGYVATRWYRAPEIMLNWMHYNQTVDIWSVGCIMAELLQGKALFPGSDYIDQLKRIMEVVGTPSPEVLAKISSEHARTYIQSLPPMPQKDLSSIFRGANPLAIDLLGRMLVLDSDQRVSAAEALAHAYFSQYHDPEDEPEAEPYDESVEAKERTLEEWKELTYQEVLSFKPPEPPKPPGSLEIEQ
# Sequence of Mitogen-activated protein kinase 14 (Homo sapiens) (Q16539 whole entry): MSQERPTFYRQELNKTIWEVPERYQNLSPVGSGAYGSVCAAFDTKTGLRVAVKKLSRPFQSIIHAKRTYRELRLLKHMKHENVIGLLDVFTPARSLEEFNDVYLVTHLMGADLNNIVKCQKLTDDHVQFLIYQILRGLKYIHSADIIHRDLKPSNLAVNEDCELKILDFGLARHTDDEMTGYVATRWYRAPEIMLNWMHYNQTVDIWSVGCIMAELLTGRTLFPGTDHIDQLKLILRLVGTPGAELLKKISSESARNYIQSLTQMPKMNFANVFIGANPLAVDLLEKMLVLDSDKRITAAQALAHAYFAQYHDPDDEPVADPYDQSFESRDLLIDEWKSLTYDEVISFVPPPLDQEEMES
SMILES,inhibition [1],inhibition [2],inhibition [3],inhibition [11],inhibition [22],inhibition [23],inhibition [24],inhibition (BaF3),also measured
CCN1CCN(Cc2ccc(NC(=O)c3ccc(C)c(NC(=O)c4cncc(-c5cccs5)c4)c3)cc2C(F)(F)F)CC1,Active,Active,Active,Active,,,,Active,inhibition [4]: Active; inhibition [5]: Active; inhibition [6]: Active; inhibition [7]: Active; inhibition [8]: Active; inhibition [9]: Active; inhibition [10]: Active; inhibition [12]: Active; inhibition [13]: Active; inhibition [14]: Active; inhibition [15]: Active; inhibition [16]: Active; inhibition [17]: Active; inhibition [18]: Active; inhibition [19]: Active; inhibition [20]: Active; inhibition [21]: Active
Cc1cn(-c2cc(NC(=O)c3ccc(C)c(NC(=O)c4ccno4)c3)cc(C(F)(F)F)c2)cn1,,,,inactive,inactive,inactive,inactive,,
Cc1ccc(C(=O)Nc2cccc(C(F)(F)F)c2)cc1Nc1[nH]cnc2ncnc1-2,,Active,Active,,,,,Active,inhibition [25]: Active; inhibition [26]: Active; inhibition [27]: Active

# The next lines start with results.
inhibition [1],inhibition [2],inhibition [3],inhibition [11],inhibition [22],inhibition [23],inhibition [24],SMILES,inhibition (BaF3),also measured
,,,inactive,inactive,inactive,inactive,Cc1ccc(C(=O)Nc2cccc(C(F)(F)F)c2)cc1Nc1cncc(C(N)=O)c1,,
Active,Active,Active,inactive,,inactive,inactive,Cc1ccc(C(=O)Nc2cccc(C(F)(F)F)c2)cc1Nc1ccc2occc(=O)c2c1,Active,
